target: T1, human β3-adrenergic receptor (Homo sapiens, UniProt P13945); experiment: cAMP levels in CHO-K1 cells expressing the human β3-adrenergic receptor; format: cell-based; conditions: 10 μM, 15 min
T1 construct: expressed in transfected cells
Method: CHO-K1 cells stably expressing the human β3-adrenergic receptors were serum-starved overnight and stimulated with an agonist, final concentration 1×10^−5 M, for 15 min in stimulation buffer (HBSS supplemented with 1% BSA, 5 mM HEPES and 1 mM IBMX, pH 7.4) The medium was then aspirated and to end the reaction, 100 μL of 95% EtOH was added to each well of the 24-well plate and cells were kept at −20° C. overnight. The next day EtOH was allowed to evaporate and 250 μL of lysis buffer (1% BSA, 5 mM HEPES and 0.3% Tween-20, pH 7.4) was added to each well. The plate was kept at −80° C. for 30 min and thawed in room temperature. Intracellular cAMP levels were detected using an alpha screen cAMP kit (6760635D from Perkin Elmer). The activity for each compound is compared to that of isoproterenol.

T1 sequence (P13945 whole entry): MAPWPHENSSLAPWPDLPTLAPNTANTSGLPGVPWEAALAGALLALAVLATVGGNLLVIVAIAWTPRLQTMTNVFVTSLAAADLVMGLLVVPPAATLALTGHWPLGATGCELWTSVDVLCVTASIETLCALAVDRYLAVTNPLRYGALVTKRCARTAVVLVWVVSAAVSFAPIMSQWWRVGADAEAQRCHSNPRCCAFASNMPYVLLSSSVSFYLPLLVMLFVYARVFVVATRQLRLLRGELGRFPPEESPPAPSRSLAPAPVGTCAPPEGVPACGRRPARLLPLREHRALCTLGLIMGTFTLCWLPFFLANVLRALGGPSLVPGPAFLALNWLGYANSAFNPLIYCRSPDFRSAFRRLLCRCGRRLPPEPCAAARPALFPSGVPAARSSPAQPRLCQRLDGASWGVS

Activity (intracellular cAMP compared to that of isoproterenol) | Compound
+ + | CCS(=O)(=O)N[C@H]1CC[C@@H](CC(C)(C)NC[C@H](O)c2cncc(F)c2)CC1 [Compound 18, N-((cis)-4-(2-(((R)-2-(5-fluoropyridin-3-yl)-2-hydroxyethyl)amino)-2-methylpropyl)cyclo-hexyl)ethanesulfonamide]

same assay, conditions: CHO-K1, 0.25 h, 15 min, read-out: Activity (intracellular cAMP compared to that of isoproterenol)

Compound | Emax at 10 µM [%]
CCCCNC[C@H](O)c1ccccc1F [Compound 64, (R)-2-(butylamino)-1-(2-fluorophenyl)ethan-1-ol] | > 75
CO[C@H]1CC[C@H](CC[C@@H]2CC[C@H]([C@H](O)c3cccc(F)c3)N2)CC1 [Compound 39, (R)-(3-fluorophenyl)((2R,5R)-5-(2-((tranbs)-4-methoxy-cyclohexyl)ethyl)pyrrolidin-2-yl)methanol] | > 75
CCC[C@@H](C)NC[C@H](O)c1cccc(O)c1 [Compound 69, 3-((R)-1-hydroxy-2-(((R)-pentan-2-yl)amino)ethyl)-phenol] | > 75
CCOC(=O)CO[C@H]1CC[C@H](C(C)(C)NC[C@H](O)c2cccc(F)c2)CC1 [Compound 41, ethyl 2-(((1R,4r)-4-(2-(((R)-2-(3-fluorophenyl)-2-hydroxyethyl)amino)propan-2-yl)cyclohexyl)oxy)acetate] | > 75
CC(C)(C[C@H]1CC[C@H](S(N)(=O)=O)CC1)NC[C@H](O)c1cccc(F)c1 [Compound 22, (trans)-4-(2-(((R)-2-(3-fluorophenyl)-2-hydroxy-ethyl)amino)-2-methyl-propyl)cyclohexane-1-sulfonamide] | > 75
CC1(NC[C@H](O)c2cccc(F)c2)CC1 [Compound 63, (R)-1-(3-fluorophenyl)-2-((1-methylcyclopropyl)amino)-ethan-1-ol] | 50 to 75
CC(C)(C)NC[C@H](O)c1ccc(F)c(N)c1F [Compound 59, (R)-1-(3-amino-2,4-difluoro-phenyl)-2-(tert-butylamino)-ethan-1-ol] | > 75
CCCCS(=O)(=O)N[C@H]1CC[C@@H](CC(C)(C)NC[C@H](O)c2cccc(F)c2)CC1 [Compound 12] | > 75
COCC12CC(C1)[C@H]([C@H](O)c1cccc(F)c1)N2 [Compound 29, (R)-(3-fluorophenyl)((R)-1-(methoxymethyl)-2-aza-bicyclo[2.1.1]hexan-3-yl)-methanol] | 50 to 75
CC(C)(C[C@H]1CC[C@H](NC(=O)C(F)(F)F)CC1)NC[C@H](O)c1cccc(F)c1 [Compound 33, 2,2,2-trifluoro-N-((1R,4r)-4-(2-(((R)-2-(3-fluorophenyl)-2-hydroxyethyl)amino)-2-methylpropyl)cyclohexyl)-acetamide] | > 75
O[C@H](c1cncc(F)c1)C12CCC(COc3ccc(OC(F)(F)F)cc3)(CC1)N2 [Compound 32, (R)-(5-fluoropyridin-3-yl)((1r,4R)-4-((4-(trifluoro-methoxy)phenoxy)methyl)-7-azabicyclo[2.2.1]heptan-1-yl)methanol] | > 75
CC1(C)CC[C@H]([C@H](O)c2cccc(Cl)c2)N1 [Compound 58, (R)-(3-chlorophenyl)((R)-5,5-dimethylpyrrolidin-2-yl)-methanol] | 50 to 75
O[C@H](c1cccc(F)c1)C12CCC(Cc3ccccc3)(CC1)N2 [Compound 43, (R)-(4-benzyl-7-azabicyclo-[2.2.1]heptan-1-yl)(3-fluoro-phenyl)methanol] | 50 to 75
CCC[C@H](C)NC[C@H](O)c1cccc(O)c1 [Compound 68, 3-((R)-1-hydroxy-2-(((S)-pentan-2-yl)amino)ethyl)-phenol] | > 75
COC(=O)N1CCC[C@@H](CC(C)(C)NC[C@H](O)c2cccc(F)c2)C1 [Compound 5, methyl (S)-3-(2-(((R)-2-(3-fluorophenyl)-2-hydroxy-ethyl)amino)-2-methyl-propyl)piperidine-1-carboxylate] | > 75
CC(C)(C)NC[C@H](O)c1cccc(N)c1F [Compound 61, (R)-1-(3-amino-2-fluoro-phenyl)-2-(tert-butylamino)-ethan-1-o] | > 75
CCCCNCC(O)c1ccc(F)c(N)c1F (stereo not shown) [Compound 67, 1-(3-amino-2,4-difluoro-phenyl)-2-(butylamino)ethan-1-ol] | 50 to 75
CCOCC12CCC([C@H](O)c3cncc(F)c3)(CC1)N2 [Compound 38, (R)-(4-(ethoxymethyl)-7-azabicyclo[2.2.1]heptan-1-yl)(5-fluoropyridin-3-yl) methanol] | 50 to 75

More lines, now with the values ahead:

Emax at 10 µM [%] | Compound
50 to 75 | COC(=O)[C@H]1CC[C@H](CCC(C)(C)NC[C@H](O)c2cncc(F)c2)CC1 [Compound 47, methyl (trans)-4-(3-(((R)-2-(5-fluoropyridin-3-yl)-2-hydroxyethyl)amino)-3-methylbutyl)cyclohexane-1-carboxylate]
> 75 | CCCCS(=O)(=O)N[C@H]1CC[C@H](CC(C)(C)NC[C@H](O)c2cccc(F)c2)CC1 [Compound 13]
50 to 75 | CO[C@H]1CC[C@@H](CC(C)(C)NC[C@H](O)c2cccc(F)c2)CC1 [Compound 53, (R)-1-(3-fluorophenyl)-2-((1-((cis)-4-methoxycyclohexyl)-2-methylpropan-2-yl)-amino)ethan-1-ol]
> 75 | CO[C@H]1CC[C@@H](CC(C)(C)NC[C@H](O)c2ccc(F)c(N)c2F)CC1 [Compound 36, (R)-1-(3-amino-2,4-difluoro-phenyl)-2-((1-((cis)-4-methoxycyclohexyl)-2-methylpropan-2-yl)amino)-ethan-1-ol]
> 75 | CCCCS(=O)(=O)N[C@H]1CC[C@H](CC(C)(C)NC[C@H](O)c2cncc(F)c2)CC1 [Compound 19, N-((trans)-4-(2-(((R)-2-(5-fluoropyridin-3-yl)-2-hydroxyethyl)amino)-2-methylpropyl)cyclohexyl)-butane-1-sulfonamide]
50 to 75 | CC(C)(C[C@H]1CC[C@H](C#N)CC1)NC[C@H](O)c1cccc(F)c1 [Compound 40, (trans)-4-(2-(((R)-2-(3-fluorophenyl)-2-hydroxy-ethyl)amino)-2-methyl-propyl)cyclohexane-1-carbonitrile]
50 to 75 | CC(C)CS(=O)(=O)N[C@H]1CC[C@@H](CC(C)(C)NC[C@H](O)c2cncc(F)c2)CC1 [Compound 14, N-((cis)-4-(2-(((R)-2-(5-fluoropyridin-3-yl)-2-hydroxyethyl)amino)-2-methylpropyl)cyclohexyl)-2-methylpropane-1-sulfonamide]
> 75 | CCCS(=O)(=O)N[C@H]1CC[C@H](CC(C)(C)NC[C@H](O)c2cncc(F)c2)CC1 [Compound 10, N-((trans)-4-(2-(((R)-2-(5-fluoropyridin-3-yl)-2-hydroxyethyl)amino)-2-methylpropyl)cyclohexyl)-propane-1-sulfonamide]
> 75 | CNS(=O)(=O)[C@H]1CC[C@H](CC(C)(C)NC[C@H](O)c2cccc(F)c2)CC1 [Compound 27, (trans)-4-(2-(((R)-2-(3-fluorophenyl)-2-hydroxy-ethyl)amino)-2-methy-propyl)-N-methyl-cyclohexane-1-sulfonamide]
50 to 75 | CO[C@H]1CC[C@H](C[C@@H]2CC[C@H]([C@H](O)c3ccccc3F)N2)CC1 [Compound 49, (R)-(2-fluorophenyl)((2R,5S)-5-(((trans)-4-methoxycyclo-hexyl)methyl)pyrrolidin-2-yl)-methanol]
> 75 | CC(C)(C[C@H]1CC[C@H](NS(=O)(=O)C(F)(F)F)CC1)NC[C@H](O)c1cccc(F)c1 [Compound 30, 1,1,1-trifluoro-N-((trans)-4-(2-(((R)-2-(3-fluorophenyl)-2-hydroxyethyl)amino)-2-methylpropyl)cyclohexyl)-methanesulfonamide]
> 75 | CO[C@H]1CC[C@H](CC(C)(C)NC[C@H](O)c2ccc(F)c(N)c2F)CC1 [Compound 37, (R)-1-(3-amino-2,4-difluoro-phenyl)-2-((1-((trans)-4-methoxycyclohexyl)-2-methylpropan-2-yl)amino)-ethan-1-ol]
> 75 | CC(C)(NC[C@H](O)c1cccc(F)c1)[C@H]1CC[C@H](NC(=O)c2ccccc2)CC1 [Compound 44, N-((trans)-4-(2-(((R)-2-(3-fluorophenyl)-2-hydroxy-ethyl)amino)propan-2-yl)-cyclohexyl)benzamide]
50 to 75 | CCCCNC[C@H](O)c1ccc(O)cc1 [Compound 70, (R)-4-(2-(butylamino)-1-hydroxyethyl)phenol]
50 to 75 | CO[C@H]1CC[C@H](C(C)(C)NC[C@H](O)c2cccc(F)c2)CC1 [Compound 54, (R)-1-(3-fluorophenyl)-2-((2-((trans)-4-methoxycyclo-hexyl)propan-2-yl)amino)-ethan-1-ol]
> 75 | CC(C)(C[C@H]1CC[C@H](NS(=O)(=O)C(F)(F)F)CC1)NC[C@H](O)c1cncc(F)c1 [Compound 11, 1,1,1-trifluoro-N-((1R,4r)-4-(2-(((R)-2-(5-fluoropyridin-3-yl)-2-hydroxyethyl)amino)-2-methylpropyl)cyclohexyl)-methanesulfonamide]
> 75 | CC(C)(C[C@H]1CC[C@H](NS(C)(=O)=O)CC1)NC[C@H](O)c1ccc(F)c(N)c1F [Compound 23, N-((trans)-4-(2-(((R)-2-(3-amino-2,4-difluorophenyl)-2-hydroxyethyl)amino)-2-methylpropyl)cyclohexyl)-methanesulfonamide]
> 75 | CN(C)C(=O)N1CCC[C@@H](CC(C)(C)NC[C@H](O)c2cccc(F)c2)C1 [Compound 4, (S)-3-(2-(((R)-2-(3-fluoro-phenyl)-2-hydroxyethyl)-amino)-2-methylpropyl)-N,N-dimethylpiperidine-1-carboxamide]

From US20250262170A1, “COMBINATIONS OF BETA 2-ADRENERGIC RECEPTOR AGONISTS AND BETA 3-ADRENERGIC RECEPTOR AGONISTS, AND MEDICAL USES THEREOF” (ATROGI AB, priority 2022, published 2025)
